Values quoted from earlier work, collected in patent US20210319872A1, “DRUG AND DEVICE COMBINATION PRODUCTS WITH IMPROVED SAFETY AND EFFICACY PROFILES” (priority 2016, published 2021).

Conditions: in vivo

For `CC(C)NCC(O)c1ccc(NS(C)(=O)=O)cc1` (stereo not shown) [Sotalol (Betapace)], the Bradyarrhythmia is given as 12.3% to 16%; pediatric, 4%), Cardiac dysrhythmia (5%),, the Cardiac dysrhythmia is given as 12.3% to 16%; pediatric, 4%), Cardiac dysrhythmia (5%), and the Cerebrovascular accident is given as “Neurologic: Cerebrovascular accident (1%)”. For the same compound, the Chest pain was “Cardiovascular: Chest pain (Adult, 16%; pediatric, 4%),”, the Congestive heart failure was “Congestive heart failure (1.2% to 3.3%), Heart failure (5%),” and the Disturbance of consciousness was “Neurologic: Disturbance of consciousness (4%), Dizziness (13.1%”. For the same compound, the Dizziness was “Neurologic: Disturbance of consciousness (4%), Dizziness (13.1%”, the Dyspnea was “Respiratory: Dyspnea (9.2% to 21%)” and the Fatigue was “Other: Fatigue (18.9% to 20%)”. The Heart failure was “Congestive heart failure (1.2% to 3.3%), Heart failure (5%),”, the Lightheadedness was “Lightheadedness (12%)” and the Rash was “Dermatologic: Rash (5%)”. The Torsades de pointes was “Prolonged QT interval, Torsades de pointes (0.5% to 4%)”.
In the case of `C[C@H]1O[C@@H](O[C@H]2[C@@H](O)C[C@H](O[C@H]3[C@@H](O)C[C@H](O[C@H]4CC[C@@]5(C)[C@H](CC[C@@H]6[C@@H]5CC[C@]5(C)[C@@H](C7=CC(=O)OC7)CC[C@]65O)C4)O[C@@H]3C)O[C@@H]2C)C[C@H](O)[C@@H]1O` [Digitoxin], the “Common side effects, listed without incidence” value is listed as “Enlarged Breasts” and the “Infrequent side effects, listed” value is listed as “Sinus Bradycardia”.
For `COCCc1ccc(OCC(O)CNC(C)C)cc1` (stereo not shown) [Metoprolol (Lopressor, Toprol XL)], the Bradyarrhythmia is given as “Cardiovascular: Bradyarrhythmia (3%), Cold extremities (1%),”, the Bronchospasm is given as “Respiratory: Bronchospasm (1%)” and the Cold extremities is given as “Cardiovascular: Bradyarrhythmia (3%), Cold extremities (1%),”. The “Common side effects, listed without incidence” value was “Neurologic: Dizziness (10%), Fatigue (10%), Headache”, the Constipation was “Gastrointestinal: Constipation (1%), Diarrhea (5%), Indigestion” and the Depression was “Psychiatric: Depression (5%)”. The Diarrhea was “Gastrointestinal: Constipation (1%), Diarrhea (5%), Indigestion”, the Dizziness was “Neurologic: Dizziness (10%), Fatigue (10%), Headache” and the Dyspnea was “Respiratory: Dyspnea (3%), Wheezing (1%)”. The Fatigue was “Neurologic: Dizziness (10%), Fatigue (10%), Headache”, the Heart failure was “Heart failure (1%), Hypotension (1%)” and the Hypotension was “Heart failure (1%), Hypotension (1%)”. For the same compound, the Indigestion was “(1%), Nausea (1%)”, the Nausea was “(1%), Nausea (1%)” and the Pruritus was “Dermatologic: Pruritus (5%), Rash (5%)”. For the same compound, the Rash was “Dermatologic: Pruritus (5%), Rash (5%)” and the Wheezing was “Respiratory: Dyspnea (3%), Wheezing (1%)”.
For `CCCCC(=O)N(Cc1ccc(-c2ccccc2-c2nnn[nH]2)cc1)[C@H](C(=O)O)C(C)C` [Valsartan (Diovan)], the “Common side effects, listed without incidence” value is given as “Respiratory: Cough”, the Dizziness is given as “Neurologic: Dizziness (2% to 17%), Headache (greater than 1%)” and the Headache is given as “Neurologic: Dizziness (2% to 17%), Headache (greater than 1%)”. The Hypotension was “Cardiovascular: Hypotension (5.5% to 6.9%)” and the “Serum blood urea nitrogen raised” value was “Renal: Serum blood urea nitrogen raised (heart failure, 16.6%),”.
For `Nc1ccncc1` [Ampyra], the Abdominal pain is listed as “Gastrointestinal: Abdominal pain (7%), Nausea (7% to 13%),”, the Abnormal gait is listed as “Musculoskeletal: Abnormal gait (5%), Backache (5%)” and the Anxiety is listed as “Psychiatric: Anxiety (5%)”. The Asthenia was “Neurologic: Asthenia (7%), Dizziness (7%), Headache (7%),”, the Backache was “Musculoskeletal: Abnormal gait (5%), Backache (5%)” and the Dizziness was “Neurologic: Asthenia (7%), Dizziness (7%), Headache (7%),”. The Headache was “Neurologic: Asthenia (7%), Dizziness (7%), Headache (7%),”, the Insomnia was “Insomnia (9%)” and the Nausea was “Gastrointestinal: Abdominal pain (7%), Nausea (7% to 13%),”. The “Serious side effect, Immunologic” value was “Immunologic: Anaphylaxis, Hypersensitivity reaction”, the “Serious side effect, Neurologic” value was “Neurologic: Seizure” and the “Urinary tract infectious disease” value was “Renal: Urinary tract infectious disease (12%)”. The Vomiting was “Vomiting (13%)”.
In the case of `CC[C@@H](C(N)=O)N1CCCC1=O` [Levetiracetam (Keppra)], the Asthenia is given as “Neurologic: Asthenia (15%), Dizziness (5% to 9%), Headache”, the Cough is given as “Respiratory: Cough (2% to 9%), Nasopharyngitis (7% to 15%)” and the “Decreased bone mineral density” value is given as “Musculoskeletal: Decreased bone mineral density (70%), Neck pain”. For the same compound, the “Decreased white blood cell count” value was “blood cell count (2.4% to 3.2%), Eosinophilia (8.6%), Neutropenia”, the Dizziness was “Neurologic: Asthenia (15%), Dizziness (5% to 9%), Headache” and the Eosinophilia was “blood cell count (2.4% to 3.2%), Eosinophilia (8.6%), Neutropenia”. For the same compound, the Fatigue was “Other: Fatigue (10% to 11%)”, the Headache was “(14% to 19%)” and the Infectious disease was “Immunologic: Infectious disease (13%)”. For the same compound, the Nasopharyngitis was “Respiratory: Cough (2% to 9%), Nasopharyngitis (7% to 15%)”, the Neck pain was “(2% to 8%)” and the Neutropenia was “(partial onset seizures, adults, 2.4%), Pancytopenia,”. The Somnolence was “Neurologic: Somnolence (8% to 45%)”, the Suicidal intent was “Psychiatric: Suicidal intent (0.5%), Suicide” and the Vomiting was “Gastrointestinal: Loss of appetite (3% to 8%), Vomiting (15%)”.
For `COc1ccc2c3c1O[C@H]1C(=O)CC[C@H]4[C@@H](C2)N(C)CC[C@]314.O=C(O)C(O)C(O)C(=O)O` [Hysingla ER], the Abdominal pain is given as “Gastrointestinal: Abdominal pain (1% to less than 5%),”, the Constipation is given as “Constipation (3% to 11%), Nausea (7% to 10%), Vomiting (3% to” and the Difficulty swallowing is given as “Gastrointestinal: Difficulty swallowing (less than 1%)”. For the same compound, the Dizziness was “Neurologic: Dizziness (2% to 3%), Headache (2% to 4%),”, the Fatigue was “Other: Fatigue (1% to 4%)” and the Headache was “Neurologic: Dizziness (2% to 3%), Headache (2% to 4%),”. For the same compound, the Hypotension was “Cardiovascular: Hypotension (less than 1%), Orthostatic”, the Opioid withdrawal was “Opioid withdrawal (less than 1%)” and the Orthostatic hypotension was “hypotension (less than 1%), Prolonged QT interval, Syncope”. For the same compound, the Peripheral edema was “Cardiovascular: Peripheral edema (1% to less than 5%%)”, the Pruritus was “Dermatologic: Pruritus (0% to less than 5%)” and the “Serious side effect, Cardiovascular” value was “hypotension (less than 1%), Prolonged QT interval, Syncope”. For the same compound, the “Serious side effect, Neurologic” value was “Neurologic: Raised intracranial pressure, Seizure”, the “Serious side effect, Other” value was “Other: Drug withdrawal syndrome in neonate of dependent mother,” and the “Serious side effect, Respiratory” value was “Respiratory: Respiratory depression”. For the same compound, the Somnolence was “Somnolence (1% to 5%), Tremor (3%)”, the Spasm was “Musculoskeletal: Spasm (1% to less than 5%)” and the Tremor was “Somnolence (1% to 5%), Tremor (3%)”. For the same compound, the Upper respiratory infection was “Respiratory: Upper respiratory infection (1% to 3%)”, the “Urinary tract infectious disease” value was “Renal: Urinary tract infectious disease (1% to 5%)” and the Xerostomia was 6%), Xerostomia (1% to less than 5%).
In the case of `O=C1Nc2ccc(Cl)cc2C(c2ccccc2Cl)=NC1O` (stereo not shown) [Lorazepam (Ativan)], the Acidosis is given as “Endocrine metabolic: Acidosis (less than 1%)”, the Asthenia is given as “Neurologic: Asthenia (4.2%), Dizziness (6.9%), Sedated (15.9%),” and the “Common side effects, listed without incidence” value is given as “Psychiatric: Depression”. For the same compound, the Dizziness was “Neurologic: Asthenia (4.2%), Dizziness (6.9%), Sedated (15.9%),”, the Sedated was “Neurologic: Asthenia (4.2%), Dizziness (6.9%), Sedated (15.9%),” and the “Serious side effects, listed without incidence or only as rare” value was “Psychiatric: Delirium”. The Unsteadiness present was “Unsteadiness present (3.4%)”.
In the case of `COC(=O)C(c1ccccc1)C1CCCCN1` (stereo not shown) [Methylphenidate], the Aggressive behavior is given as “Psychiatric: Aggressive behavior (Adult, 1.7%), Mania, Psychotic”, the Decrease in appetite is given as “appetite (Adult, 25.3%; pediatric, 2% to 9% or greater), Loss of” and the Diaphoresis is given as “Dermatologic: Diaphoresis (Adult, 5.1%)”. The Dizziness was “Neurologic: Dizziness (Adult, 6.7%; pediatric, 1.9%.), Headache”, the Headache was “(Adult, 22.2%; pediatric, up to 12%), Insomnia (Adult, 12.3%;” and the Irritability was 3.9%), Irritability (Adult, 5.8%). For the same compound, the Nausea was “(Adult, 12.8%), Vomiting (2% or greater), Xerostomia (Adult,”, the “Serious side effect, Endocrine metabolic” value was “Endocrine metabolic: Decreased body growth” and the “Serious side effect, Gastrointestinal” value was “Gastrointestinal: Gastrointestinal obstruction, with preexisting”. The “Serious side effect, Hepatic” value was “Hepatic: Abnormal liver function”, the “Serious side effect, Psychiatric” value was “Psychiatric: Aggressive behavior (Adult, 1.7%), Mania, Psychotic” and the “Serious side effect, Reproductive” value was “Reproductive: Priapism”. For the same compound, the Tachycardia was “Cardiovascular: Tachycardia (Adult, 4.8%)”, the Vomiting was “(Adult, 12.8%), Vomiting (2% or greater), Xerostomia (Adult,” and the Weight decreased was “Endocrine metabolic: Weight decreased (Adult, 6.5%)”. For the same compound, the Xerostomia was 14%).
In the case of `CCC1(CCC(C)C)C(=O)NC(=O)NC1=O` [Amytal (amobarbital)], the Agranulocytosis is given as “Hematologic: Agranulocytosis (rare), Megaloblastic anemia, With”, the “Common side effect, Neurologic” value is given as “Neurologic: Confusion, Dizziness, Headache, Somnolence” and the “Injury of liver, With prolonged use” value is given as “Hepatic: Injury of liver, With prolonged use (rare)”. For the same compound, the “Megaloblastic anemia, With prolonged use” value was “prolonged use (rare)”, the “Serious side effect, Respiratory” value was “Respiratory: Apnea, Hypoventilation” and the Stevens-Johnson syndrome was “Dermatologic: Stevens-Johnson syndrome (rare)”.
For `CCOC(=O)[C@H](CCc1ccccc1)N[C@H]1CCc2ccccc2N(CC(=O)O)C1=O` [Benazepril (Lotensin)], the “Angioedema, head and neck” value is given as “Other: Angioedema, head and neck (0.5%)”, the Cough is given as “Respiratory: Cough (1.2%)” and the Dizziness is given as “Neurologic: Dizziness (3.6%), Headache (6.2%)”. The Fatigue was “Other: Fatigue (2.4%)”, the Headache was “Neurologic: Dizziness (3.6%), Headache (6.2%)” and the Stevens-Johnson syndrome was “Dermatologic: Stevens-Johnson syndrome (less than 1%)”.
In the case of `COC(=O)C1=C(C)NC(C)=C(C(=O)OC)C1c1ccccc1[N+](=O)[O-]` [Nifedipine (Adalat, Procardia)], the Dizziness is listed as “Neurologic: Dizziness (4% to 10%), Headache (19% to 23%)”, the Flushing is listed as “Dermatologic: Flushing (4% to 25%)” and the Headache is listed as “Neurologic: Dizziness (4% to 10%), Headache (19% to 23%)”. For the same compound, the Hypotension was “Cardiovascular: Hypotension (up to 5%), Palpitations (up to 7%),”, the Myocardial infarction was “Cardiovascular: Myocardial infarction (up to 4%), Ventricular” and the Nausea was “Gastrointestinal: Nausea (up to 10%)”. For the same compound, the Palpitations was “Cardiovascular: Hypotension (up to 5%), Palpitations (up to 7%),”, the Peripheral edema was “Peripheral edema (7% to 29%)” and the Ventricular arrhythmia was “arrhythmia (less than 0.5%)”.
